# Reference: ChEMBL document CHEMBL4043168, “The design and SAR of a novel series of 2-aminopyridine based LRRK2 inhibitors” (Bioorg Med Chem Lett, 2017)
# What was measured:
# [1] = target: Serine/threonine-protein kinase ULK1 (Homo sapiens) (UniProt O75385); assay: Inhibition of ULK1 conserved Lys2 (DLKPQNILLSNPAGR) in human PBMC at 1 uM
# [2] = target: Calcium/calmodulin-dependent protein kinase type II subunit gamma (Homo sapiens) (UniProt Q13555); assay: Inhibition of CaMK2g labeling at conserved Lys1 (TSTQEYAAKIINTK) in human PBMC at 0.1 uM
# Calcium/calmodulin-dependent protein kinase type II subunit gamma (Homo sapiens), sequence (Q13555 whole entry): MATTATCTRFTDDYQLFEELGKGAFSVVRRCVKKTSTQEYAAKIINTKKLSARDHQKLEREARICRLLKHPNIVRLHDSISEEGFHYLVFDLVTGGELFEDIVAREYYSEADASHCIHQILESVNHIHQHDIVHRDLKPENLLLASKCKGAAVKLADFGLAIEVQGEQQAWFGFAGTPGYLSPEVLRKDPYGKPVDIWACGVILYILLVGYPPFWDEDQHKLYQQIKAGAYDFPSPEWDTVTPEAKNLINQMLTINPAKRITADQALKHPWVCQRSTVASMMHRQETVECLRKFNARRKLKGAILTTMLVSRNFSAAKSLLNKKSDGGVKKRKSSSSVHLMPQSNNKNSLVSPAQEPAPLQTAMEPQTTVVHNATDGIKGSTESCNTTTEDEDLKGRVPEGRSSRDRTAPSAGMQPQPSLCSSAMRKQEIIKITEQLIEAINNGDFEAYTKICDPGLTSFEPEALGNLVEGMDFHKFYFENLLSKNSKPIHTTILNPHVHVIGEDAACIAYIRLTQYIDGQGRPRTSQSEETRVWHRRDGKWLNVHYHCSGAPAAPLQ
# [3] = target: Interferon-induced, double-stranded RNA-activated protein kinase (Homo sapiens) (UniProt P19525); assay: Inhibition of PKR activation Loop (IGDFGLVTSLKNDGKR) in human PBMC at 1 uM
# Interferon-induced, double-stranded RNA-activated protein kinase (Homo sapiens), sequence (P19525 whole entry): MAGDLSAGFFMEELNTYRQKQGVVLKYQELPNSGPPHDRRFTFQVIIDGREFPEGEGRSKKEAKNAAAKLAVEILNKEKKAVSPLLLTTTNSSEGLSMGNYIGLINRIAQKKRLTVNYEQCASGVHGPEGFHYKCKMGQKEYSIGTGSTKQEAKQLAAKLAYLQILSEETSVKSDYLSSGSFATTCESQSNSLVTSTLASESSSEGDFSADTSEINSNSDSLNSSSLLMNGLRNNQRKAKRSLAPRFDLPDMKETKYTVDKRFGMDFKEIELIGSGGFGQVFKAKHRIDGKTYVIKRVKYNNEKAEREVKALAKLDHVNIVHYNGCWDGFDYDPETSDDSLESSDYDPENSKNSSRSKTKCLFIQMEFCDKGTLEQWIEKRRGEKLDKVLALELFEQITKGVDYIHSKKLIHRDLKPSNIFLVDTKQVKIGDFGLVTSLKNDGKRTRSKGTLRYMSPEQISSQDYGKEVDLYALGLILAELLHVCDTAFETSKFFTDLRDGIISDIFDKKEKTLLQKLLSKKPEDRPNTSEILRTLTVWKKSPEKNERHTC
# [4] = target: Mitogen-activated protein kinase 12 (Homo sapiens) (UniProt P53778); assay: Inhibition of p38g conserved Lys2 (DLKPGNLAVNEDCELK) in human PBMC at 0.1 uM
# Mitogen-activated protein kinase 12 (Homo sapiens), sequence (P53778 whole entry): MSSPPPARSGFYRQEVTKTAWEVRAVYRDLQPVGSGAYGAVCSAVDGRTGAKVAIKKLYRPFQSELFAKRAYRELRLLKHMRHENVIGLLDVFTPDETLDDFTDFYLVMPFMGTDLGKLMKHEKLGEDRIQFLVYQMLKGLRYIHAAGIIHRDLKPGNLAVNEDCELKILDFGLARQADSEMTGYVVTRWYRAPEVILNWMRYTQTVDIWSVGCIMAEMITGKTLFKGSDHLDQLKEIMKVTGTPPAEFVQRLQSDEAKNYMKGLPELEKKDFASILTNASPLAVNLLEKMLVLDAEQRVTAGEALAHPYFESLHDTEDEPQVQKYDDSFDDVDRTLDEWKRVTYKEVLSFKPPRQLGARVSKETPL
# [5] = target: 1-phosphatidylinositol 3-phosphate 5-kinase (Homo sapiens) (UniProt Q9Y2I7); assay: Inhibition of PIP5K3 ATP binding site (GGKSGAAFYATEDDRFILK) in human PBMC at 1 uM
# 1-phosphatidylinositol 3-phosphate 5-kinase (Homo sapiens), sequence (Q9Y2I7 whole entry): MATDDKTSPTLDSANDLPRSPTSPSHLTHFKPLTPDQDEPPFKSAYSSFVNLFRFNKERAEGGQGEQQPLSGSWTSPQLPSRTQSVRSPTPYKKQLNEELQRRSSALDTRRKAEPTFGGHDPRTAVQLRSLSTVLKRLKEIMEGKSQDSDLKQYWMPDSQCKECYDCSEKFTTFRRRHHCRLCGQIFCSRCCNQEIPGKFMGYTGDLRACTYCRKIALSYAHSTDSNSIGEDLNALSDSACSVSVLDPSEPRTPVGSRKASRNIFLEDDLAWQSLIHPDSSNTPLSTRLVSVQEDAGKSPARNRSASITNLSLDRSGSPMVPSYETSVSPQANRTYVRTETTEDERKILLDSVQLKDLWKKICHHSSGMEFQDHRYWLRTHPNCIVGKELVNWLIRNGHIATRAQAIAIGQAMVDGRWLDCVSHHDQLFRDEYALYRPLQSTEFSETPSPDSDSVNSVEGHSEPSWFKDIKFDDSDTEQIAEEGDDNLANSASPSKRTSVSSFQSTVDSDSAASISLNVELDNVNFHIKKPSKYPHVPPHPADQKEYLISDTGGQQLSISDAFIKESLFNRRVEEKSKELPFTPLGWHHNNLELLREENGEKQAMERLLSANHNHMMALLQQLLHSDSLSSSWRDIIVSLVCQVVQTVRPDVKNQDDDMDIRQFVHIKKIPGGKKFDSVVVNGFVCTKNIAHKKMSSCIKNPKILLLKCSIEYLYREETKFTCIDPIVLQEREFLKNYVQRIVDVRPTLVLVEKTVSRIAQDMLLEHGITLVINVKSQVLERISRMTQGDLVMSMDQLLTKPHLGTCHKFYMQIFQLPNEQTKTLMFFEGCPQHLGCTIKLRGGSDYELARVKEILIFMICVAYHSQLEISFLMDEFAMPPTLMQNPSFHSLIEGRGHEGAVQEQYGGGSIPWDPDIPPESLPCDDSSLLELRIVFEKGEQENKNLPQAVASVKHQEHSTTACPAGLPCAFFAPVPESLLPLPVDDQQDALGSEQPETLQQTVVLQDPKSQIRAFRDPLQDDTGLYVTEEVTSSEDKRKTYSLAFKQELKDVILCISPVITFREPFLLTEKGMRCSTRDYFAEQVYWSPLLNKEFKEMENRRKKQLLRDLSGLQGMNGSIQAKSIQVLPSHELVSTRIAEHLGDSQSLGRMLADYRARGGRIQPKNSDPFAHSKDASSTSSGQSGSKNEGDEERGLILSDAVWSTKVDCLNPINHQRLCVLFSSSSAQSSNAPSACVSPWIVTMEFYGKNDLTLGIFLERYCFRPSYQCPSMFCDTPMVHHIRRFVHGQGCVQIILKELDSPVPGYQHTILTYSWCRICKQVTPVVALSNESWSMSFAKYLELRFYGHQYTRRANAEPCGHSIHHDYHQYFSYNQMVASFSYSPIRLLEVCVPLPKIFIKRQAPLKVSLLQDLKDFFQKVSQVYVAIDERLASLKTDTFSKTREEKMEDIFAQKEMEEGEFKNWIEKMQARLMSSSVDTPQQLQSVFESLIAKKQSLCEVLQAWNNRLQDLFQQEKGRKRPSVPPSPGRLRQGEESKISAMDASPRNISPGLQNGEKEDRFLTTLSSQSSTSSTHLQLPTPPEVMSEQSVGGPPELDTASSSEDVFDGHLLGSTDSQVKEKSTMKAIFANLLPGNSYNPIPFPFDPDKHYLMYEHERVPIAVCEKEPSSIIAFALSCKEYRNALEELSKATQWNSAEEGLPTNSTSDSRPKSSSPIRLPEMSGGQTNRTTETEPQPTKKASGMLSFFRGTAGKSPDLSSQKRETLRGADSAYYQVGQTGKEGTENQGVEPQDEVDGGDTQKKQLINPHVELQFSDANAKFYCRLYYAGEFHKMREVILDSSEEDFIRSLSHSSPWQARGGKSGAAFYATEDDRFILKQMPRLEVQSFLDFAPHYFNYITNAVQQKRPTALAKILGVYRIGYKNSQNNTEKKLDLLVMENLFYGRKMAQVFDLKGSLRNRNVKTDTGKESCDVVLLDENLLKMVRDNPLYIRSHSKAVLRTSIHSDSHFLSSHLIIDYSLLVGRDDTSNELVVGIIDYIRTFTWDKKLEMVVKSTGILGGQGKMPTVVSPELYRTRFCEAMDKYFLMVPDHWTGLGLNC
# [6] = target: Mitogen-activated protein kinase kinase kinase 4 (Homo sapiens) (UniProt Q9Y6R4); assay: Inhibition of MAP3K4 conserved Lys2 (DIKGANIFLTSSGLIK) in human PBMC at 0.1 uM
# [7] = target: Leucine-rich repeat serine/threonine-protein kinase 2 (Homo sapiens, UniProt Q5S007); assay: Inhibition of LRRK2 conserved Lys2 (DLKPHNVLLFTLYPNAAIIAK) in human PBMC at 0.1 uM
# [8] = target: Phosphatidylinositol 3-kinase catalytic subunit type 3 (Homo sapiens) (UniProt Q8NEB9); assay: Inhibition of PIK3C3 ATP binding site (TEDGGKYPVIFKHGDDLR) in human PBMC at 1 uM
# [9] = target: Serine/threonine-protein kinase Nek4 (Homo sapiens) (UniProt P51957); assay: Inhibition of NEK4 conserved Lys2 (DLKTQNVFLTR) in human PBMC at 1 uM
# [10] = target: Ribosomal protein S6 kinase alpha-5 (Homo sapiens) (UniProt O75582); assay: Inhibition of MSK1 domain1 conserved Lys2 (DIKLENILLDSNGHVVLTDFGLSK) in human PBMC at 0.1 uM
# Ribosomal protein S6 kinase alpha-5 (Homo sapiens), sequence (O75582 whole entry, looked up, the tested form may be a part): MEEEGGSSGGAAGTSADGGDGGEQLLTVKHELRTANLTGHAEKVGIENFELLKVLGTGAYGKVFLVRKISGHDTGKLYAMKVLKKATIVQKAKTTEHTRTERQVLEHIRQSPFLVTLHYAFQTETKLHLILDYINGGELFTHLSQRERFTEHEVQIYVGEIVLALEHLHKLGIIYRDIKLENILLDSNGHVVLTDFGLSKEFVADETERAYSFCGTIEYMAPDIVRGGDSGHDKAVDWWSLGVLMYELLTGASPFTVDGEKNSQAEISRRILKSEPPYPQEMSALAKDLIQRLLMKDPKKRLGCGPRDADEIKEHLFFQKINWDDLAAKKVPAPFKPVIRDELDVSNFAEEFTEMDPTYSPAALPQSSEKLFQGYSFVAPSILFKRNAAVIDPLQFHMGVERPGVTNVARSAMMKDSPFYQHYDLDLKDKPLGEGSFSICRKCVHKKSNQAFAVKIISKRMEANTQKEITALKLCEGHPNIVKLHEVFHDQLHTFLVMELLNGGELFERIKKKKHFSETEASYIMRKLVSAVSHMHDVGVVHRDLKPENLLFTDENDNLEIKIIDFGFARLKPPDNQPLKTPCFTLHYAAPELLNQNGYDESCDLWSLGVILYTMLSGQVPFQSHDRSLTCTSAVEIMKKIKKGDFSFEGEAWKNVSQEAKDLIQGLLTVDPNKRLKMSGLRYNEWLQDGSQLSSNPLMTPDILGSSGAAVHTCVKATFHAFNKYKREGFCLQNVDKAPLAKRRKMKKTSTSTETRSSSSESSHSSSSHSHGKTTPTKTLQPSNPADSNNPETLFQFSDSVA
# [11] = target: Tyrosine-protein kinase Fgr (Homo sapiens) (UniProt P09769); assay: Inhibition of FGR conserved Lys1 (LIKDDEYNPCQGSKFPIK) in human PBMC at 0.1 uM
# [12] = target: Mitogen-activated protein kinase 3 (Homo sapiens) (UniProt P27361); assay: Inhibition of Erk1 ATP binding site (DLKPSNLLINTTCDLK) in human PBMC at 0.1 uM
# Mitogen-activated protein kinase 3 (Homo sapiens), sequence (P27361 whole entry): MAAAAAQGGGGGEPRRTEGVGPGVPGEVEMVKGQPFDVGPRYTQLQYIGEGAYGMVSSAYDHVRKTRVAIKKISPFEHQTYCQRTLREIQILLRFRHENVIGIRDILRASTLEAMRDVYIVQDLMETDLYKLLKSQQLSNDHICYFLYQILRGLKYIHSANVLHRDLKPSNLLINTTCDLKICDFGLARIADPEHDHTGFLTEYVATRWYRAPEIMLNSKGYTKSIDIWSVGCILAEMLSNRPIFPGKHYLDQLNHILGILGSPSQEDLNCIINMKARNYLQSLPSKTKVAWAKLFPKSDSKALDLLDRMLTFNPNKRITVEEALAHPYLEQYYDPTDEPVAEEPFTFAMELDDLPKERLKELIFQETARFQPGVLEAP
# [13] = target: Dual specificity mitogen-activated protein kinase kinase 3 (Homo sapiens) (UniProt P46734); assay: Inhibition of MAP2K3 conserved Lys2 (DVKPSNVLINK) in human PBMC at 1 uM
# [14] = target: Serine/threonine-protein kinase Nek9 (Homo sapiens) (UniProt Q8TD19); assay: Inhibition of NEK9 conserved Lys2 (DIKTLNIFLTK) in human PBMC at 1 uM
# [15] = target: Serine/threonine-protein kinase WNK1 (Homo sapiens) (UniProt Q9H4A3); assay: Inhibition of Wnk1 conserved Lys2 (DLKCDNIFITGPTGSVK) in human PBMC at 1 uM
# [16] = Inhibition of GCK conserved Lys2 (DIKGANLLLTLQGDVK) in human PBMC at 1 uM
# [17] = target: T1, Serine/threonine-protein kinase LATS1 (Homo sapiens) (UniProt O95835); assay: Inhibition of LATS1 conserved Lys1 (ALYATKTLR) in human PBMC at 1 uM
# T1 sequence (whole entry): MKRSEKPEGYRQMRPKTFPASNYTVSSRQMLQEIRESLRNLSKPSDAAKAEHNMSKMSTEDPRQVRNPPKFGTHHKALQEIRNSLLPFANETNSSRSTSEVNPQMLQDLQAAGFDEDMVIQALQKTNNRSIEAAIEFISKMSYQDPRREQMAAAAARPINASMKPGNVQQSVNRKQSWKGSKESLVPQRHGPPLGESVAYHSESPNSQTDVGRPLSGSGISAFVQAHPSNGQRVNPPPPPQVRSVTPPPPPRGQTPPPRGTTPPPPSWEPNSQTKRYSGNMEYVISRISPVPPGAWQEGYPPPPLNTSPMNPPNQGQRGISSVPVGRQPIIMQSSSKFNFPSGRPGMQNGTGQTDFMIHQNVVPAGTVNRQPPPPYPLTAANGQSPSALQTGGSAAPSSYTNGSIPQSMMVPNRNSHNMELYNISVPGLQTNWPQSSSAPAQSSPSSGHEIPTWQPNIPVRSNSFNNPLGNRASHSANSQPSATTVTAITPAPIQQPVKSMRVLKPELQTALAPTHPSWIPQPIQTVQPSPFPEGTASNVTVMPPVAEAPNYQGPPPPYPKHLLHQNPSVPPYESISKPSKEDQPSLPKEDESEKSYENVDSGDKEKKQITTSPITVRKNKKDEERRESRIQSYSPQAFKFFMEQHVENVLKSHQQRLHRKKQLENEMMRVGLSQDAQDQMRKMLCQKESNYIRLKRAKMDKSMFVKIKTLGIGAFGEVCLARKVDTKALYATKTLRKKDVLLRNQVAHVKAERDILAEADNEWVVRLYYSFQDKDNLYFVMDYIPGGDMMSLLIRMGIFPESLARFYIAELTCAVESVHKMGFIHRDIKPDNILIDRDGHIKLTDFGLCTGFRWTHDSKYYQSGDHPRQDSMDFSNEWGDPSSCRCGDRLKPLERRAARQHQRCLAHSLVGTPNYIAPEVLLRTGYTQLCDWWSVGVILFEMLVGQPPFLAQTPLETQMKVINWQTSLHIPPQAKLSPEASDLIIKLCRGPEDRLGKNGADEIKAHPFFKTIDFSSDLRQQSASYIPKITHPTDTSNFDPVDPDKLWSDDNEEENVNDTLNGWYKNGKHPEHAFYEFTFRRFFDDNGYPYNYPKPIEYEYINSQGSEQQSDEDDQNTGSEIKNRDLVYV
structure (smiles),measurement,setting,value
CC(C)n1cc(-c2cc(-c3ccc(CN4CCOCC4)cc3)cnc2N)nn1,inhibition,[1],10.8%
same,inhibition,[2],-4.5%
same,inhibition,[3],-3.7%
same,inhibition,[4],26.4%
same,inhibition,[5],-9.2%
same,inhibition,[6],3.8%
same,inhibition,[7],8.6%
same,inhibition,[8],2.8%
same,inhibition,[9],-1.7%
same,inhibition,[10],33.6%
same,inhibition,[11],9.6%
same,inhibition,[12],-6.4%
same,inhibition,[13],-9.2%
same,inhibition,[14],25.5%
same,inhibition,[15],2.2%
same,inhibition,[16],26.2%
same,inhibition,[17],30.1%
